Our source for the ED50 values is US4173636A, “Decahydroquinolines, pharmaceutical compositions and methods of use” (Labaz, priority 1975, dated 1979).

Like-named read-outs stand apart in the source and are kept apart here.

Assay [1] deals with squeak at threshold-voltage (pain). Put plainly: NILSEN electric tail stimulation test, intragastric. In kind it is in vivo, mice. As to conditions: Mus musculus, po. The method, then: The second test was carried out according to the technique of NILSEN (Acta Pharmacol. et toxicol. 18, 10, 1961) on batches of 10 mice.
The animals were connected to a source of electric current by means of two electrodes inserted into the tail.
The threshold-voltage was then determined, i.e. the minimum voltage which, in the course of two successive shocks, caused the animals to squeak at least one time out of two. After this, the compound to be studied was administered by intragastric route.
Note was taken of the dose of compound (AD50) which suppressed the squeak in half of the treated animals.

The subject of assay [2] is pain-threshold voltage. The assay can be described thus: CHARLIER electric stimulation pain-threshold test, intragastric. As to conditions: Rattus norvegicus, po. In kind it is in vivo, rats. How it is done: The fourth test was carried out according to the technique of CHARLIER and al (Arch. int. Pharmacodyn. 134, 306, 1961) on batches of 10 rats.
The animals were connected to a source of electric current by means of two electrodes of which one was attached to the tail and the other maintained in the rectum.
The pain-threshold voltage was then determined for each rat by passing a current of 2 volts and increasing the current by one volt at a time until the animal gave a squeak. This control test was repeated three times at intervals of 15 minutes. The compound under study was then administered by intragastric route and, starting from the threshold-voltage already determined note was taken, every 10 minutes for 2 hours, of the voltage which caused the animals to squeak.
The results were noted according to the WINTER and FLATAKER scale (J. Pharmacol. Exp. Therap. 98, 305, 1950) and the AD's 50 obtained are listed in the Table given hereunder: […]

In assay [3] the test system is contorsions. Put plainly: SIEGMUND phenylbenzoquinone contorsion test. The assay is classed as in vivo, male mice. The settings on record: Mus musculus. The method, then:
The third test was carried out according to the technique of SIEGMUND and al (Proc. Soc. Exp. Biol. Med. 95, 729, 1957) on batches of 10 male mice.
A typical syndrome was produced in the animals by intraperitoneal injection of 0.25 ml. of a 0.02% aqueous solution of 2-phenyl-1,4-benzoquinone (phenylbenzoquinone).
The syndrome in question is characterized by intermittent contractions of the abdomen, twisting and turning of the trunk and extension of the hind legs. Note was taken of the number of movements occurring over a period of 30 minutes starting 15 minutes after the injection of phenylbenzoquinone.
The compound to be tested was injected 30 minutes before the phenylbenzoquinone in such a way that each batch received a higher dose than the preceding batch, a control batch receiving only the phenylbenzoquinone.
Note was taken of the AD50, i.e. the dose of substance which reduced at least by half the number of contorsions in half of the animals, as compared to the number of contorsions observed in the control group.

The subject of assay [4] is contorsions. Put plainly: KOSTER acetic acid contorsion test, intragastric. As to conditions: Mus musculus, po. In kind it is in vivo, mice. How it is done: The first test was carried out according to the technique of KOSTER (Fed. Proc. 18, 412, 1959) on batches of 20 mice which had been deprived of food for 18 hours.
Each batch of animals with the exception of the controls was given an intragastric dose of the compound to be studied so that each batch received a higher dose than the preceding batch. Thirty minutes after administration, the animals of each batch, as well as the control animals, were given intraperitoneally 0.2 ml. of a 0.25% acetic acid solution per 10 g. of body-weight.
During the 20 minutes following the injection of acetic acid, the number of characteristic contorsions made by the animals was noted. The absence of contorsions corresponds to animals under the influence of analgesia.
Note was taken of the AD50, i.e. the dose of the compound under study which provoked analgesia in half of the animals treated.

The test system of assay [5] is reaction time (flick-tail). The assay can be described thus: animal or person. In kind it is in vivo, male rats. The settings on record: Rattus norvegicus, sc, read-out: AD50.
Assay [6] deals with squeak at threshold-voltage (pain). Put plainly: animal or person. In kind it is in vivo, mice. The settings on record: Mus musculus, sc, read-out: AD50.
Assay [7] deals with contorsions. Put plainly: animal or person. The settings on record: Mus musculus, sc, read-out: AD50. In kind it is in vivo, mice.

As to `CC(=O)Oc1ccccc1C(=O)O` [Acetylsalicyclic acid, Acetylsalicylic acid], the ED50 in assay [1] (read-out: AD50) turned out to be 1100 mg/kg; in assay [2] (2 h, read-out: AD50) it was 1300 mg/kg; in assay [3] (read-out: AD50), 50 mg/kg; in assay [4] (read-out: AD50), 150 mg/kg.
For the compound `Cc1cc(=O)n(-c2ccccc2)n1C` [Antipyrine], the ED50 in assay [1] (intragastric, mice, suppressed the squeak in half of the treated animals, read-out: AD50 (the source's name)) worked out at 400 mg/kg; in assay [2] (intragastric, rats, WINTER and FLATAKER scale, 2 hours, read-out: AD50 (the source's name)), 500 mg/kg; in assay [3] (injected 30 minutes before phenylbenzoquinone, male mice, contorsions reduced at least by half in half of the animals, read-out: AD50 (the source's name)), 100 mg/kg; in assay [4] (intragastric, mice, 30 min before 0.25% acetic acid i.p., analgesia in half of the animals, read-out: AD50 (the source's name)) it was 120 mg/kg.
Consider `O=C(OCC(O)CO)c1ccccc1Nc1ccnc2cc(Cl)ccc12` (stereo not shown) [Glafenine], for which the ED50 turned out to be 325 mg/kg in assay [3] (read-out: AD50) and 110 mg/kg in assay [4] (read-out: AD50).
For `CC(C)=CCN1CCC2(C)c3cc(O)ccc3CC1C2C` (stereo not shown) [Pentazocine], the ED50 in assay [5] was 3 mg/kg; in assay [6] it was 12 mg/kg; in assay [7], 5 mg/kg; in assay [4] (read-out: AD50) it was 45 mg/kg.
With `CCOC(=O)C1(c2ccccc2)CCN(C)CC1` [Pethidine], the ED50 was determined as 5.5 mg/kg in assay [5]; 7 mg/kg in assay [6]; 50 mg/kg in assay [2] (2 h, read-out: AD50); 7 mg/kg in assay [7].
For `CCOc1ccc(NC(C)=O)cc1` [Phenacetine], the ED50 worked out at 450 mg/kg in assay [1] (read-out: AD50); 750 mg/kg in assay [2] (2 h, read-out: AD50); 80 mg/kg in assay [3] (read-out: AD50); 160 mg/kg in assay [4] (read-out: AD50).
